These are literature values, as cited in US20250231185A1, “Coronavirus T Cell Epitopes, Megapools and Uses Thereof” (La Jolla Institute for Immunology, priority 2021, published 2025).

For the first data set, the system named is CD8+ T cells. The following applies: SARS-CoV-2-derived CD8 epitopes; dominant = recognized by 3 or more donors/different studies; cited from earlier work.
For 594 (YLFDESGEFKL) [compound 594], the Dominant result is listed as “Yes (more dominant epitopes are defined by being recognized by 3 or more donors/different studies)”.

Turning to 628 (PTDNYITTY) [compound 628], the Dominant result is “Yes (more dominant epitopes are defined by being recognized by 3 or more donors/different studies)”.

In the case of 629 (TDNYITTY) [compound 629], the Dominant result is on record as “Yes (more dominant epitopes are defined by being recognized by 3 or more donors/different studies)”.

632 (QEILGTVSW) [compound 632]: the Dominant result is on record as “Yes (more dominant epitopes are defined by being recognized by 3 or more donors/different studies)”. With 660 (HTTDPSFLGRY) [compound 660], the Dominant entry is “Yes (more dominant epitopes are defined by being recognized by 3 or more donors/different studies)”.

On to 661 (TTDPSFLGRY) [compound 661], for which the Dominant entry is on record as “Yes (more dominant epitopes are defined by being recognized by 3 or more donors/different studies)”.

The same data set, now with this note: T cell subset (CD4 or CD8) recognizing the SARS-CoV-2-derived epitope; cited from earlier work.
With 585 (DTVIEVQGYK) [compound 585], the Restriction entry is recorded as “CD8”. 586 (QGYKSVNITF) [compound 586]: the Restriction entry is recorded as “CD8”.

With 587 (FELDERIDKV) [compound 587], the Restriction result is given as “CD8”.

For 588 (FELDERIDKVL) [compound 588], the Restriction result is reported as “CD8”.

For the substance 589 (ELDERIDKV) [compound 589], the Restriction entry is “CD8”. Turning to 590 (VLNEKCSAY) [compound 590], the Restriction entry was “CD8”. Consider 591 (VELGTEVNEF) [compound 591], for which the Restriction result was “CD8”. In the case of 592 (SELLTPLGI) [compound 592], the Restriction entry is reported as “CD8”. With 593 (YLFDESGEF) [compound 593], the Restriction result is recorded as “CD8”. As to 594 (YLFDESGEFKL) [compound 594], the Restriction entry was “CD8”.

Take 595 (FEPSTQYEY) [compound 595]: the Restriction entry is given as “CD8”. With 596 (DDYQGKPLEF) [compound 596], the Restriction entry is on record as “CD8”. In the case of 598 (LEFGATSAAL) [compound 598], the Restriction entry is “CD8”. For the substance 599 (VEVQPQLEM) [compound 599], the Restriction entry was “CD8”. As to 600 (LEMELTPVV) [compound 600], the Restriction result was “CD8”.

For the substance 601 (MELTPVVQTI) [compound 601], the Restriction result is reported as “CD8”.

As for 602 (TPVVQTIEV) [compound 602], the Restriction entry was “CD8”. As for 603 (TIEVNSFSGY) [compound 603], the Restriction result is given as “CD8”.

As to 604 (IEVNSFSGY) [compound 604], the Restriction result is “CD8”.

Take 605 (NSFSGYLKL) [compound 605]: the Restriction result is reported as “CD8”. For the substance 606 (YLKLTDNVY) [compound 606], the Restriction entry is recorded as “CD8”. For 607 (YLKLTDNVYIK) [compound 607], the Restriction result is given as “CD8”. As to 608 (EAKKVKPTV) [compound 608], the Restriction entry is given as “CD8”. On to 609 (VVVNAANVY) [compound 609], for which the Restriction result is reported as “CD8”. As for 610 (YIATNGPLK) [compound 610], the Restriction result was “CD8”. As to 611 (YENFNQHEV) [compound 611], the Restriction result is reported as “CD8”. In the case of 612 (LLSAGIFGA) [compound 612], the Restriction result is “CD8”.

Turning to 613 (GADPIHSLR) [compound 613], the Restriction result is “CD8”. Take 614 (RTNVYLAVF) [compound 614]: the Restriction result is reported as “CD8”. On to 615 (AVFDKNLYDK) [compound 615], for which the Restriction result is reported as “CD8”. With 616 (NLYDKLVSSFL) [compound 616], the Restriction result was “CD8”. Take 617 (LYDKLVSSF) [compound 617]: the Restriction result is “CD8”.

618 (KLVSSFLEM) [compound 618]: the Restriction entry is reported as “CD8”. 619 (KIAEIPKEEV) [compound 619]: the Restriction entry is “CD8”. With 620 (EVKPFITESK) [compound 620], the Restriction entry is on record as “CD8”. On to 621 (ESKPSVEQR) [compound 621], for which the Restriction result is “CD8”. Regarding 622 (FLTENLLLYI) [compound 622], the Restriction result is reported as “CD8”. On to 623 (LVSDIDITF) [compound 623], for which the Restriction result is reported as “CD8”.

With 624 (APYIVGDVV) [compound 624], the Restriction result is recorded as “CD8”.

In the case of 625 (LTAVVIPTK) [compound 625], the Restriction entry is “CD8”. Consider 626 (ALRKVPTDNY) [compound 626], for which the Restriction result is reported as “CD8”.

Consider 628 (PTDNYITTY) [compound 628], for which the Restriction result is reported as “CD8”. As to 629 (TDNYITTY) [compound 629], the Restriction result is “CD8”.

On to 630 (TTYPGQGLNGY) [compound 630], for which the Restriction result was “CD8”.

With 631 (KQEILGTVSW) [compound 631], the Restriction result is reported as “CD8”. In the case of 632 (QEILGTVSW) [compound 632], the Restriction entry is given as “CD8”. 633 (MLAHAEETR) [compound 633]: the Restriction result is reported as “CD8”. On to 634 (AHAEETRKL) [compound 634], for which the Restriction entry is given as “CD8”. For the substance 635 (KLMPVCVET) [compound 635], the Restriction entry is “CD8”. Take 636 (AIVSTIQRKYK) [compound 636]: the Restriction result is “CD8”. Turning to 637 (AIVSTIQRK) [compound 637], the Restriction result is on record as “CD8”. As for 638 (VVDYGARFY) [compound 638], the Restriction entry was “CD8”.

As to 639 (SLINTLNDL) [compound 639], the Restriction entry is “CD8”. With 640 (VSSPDAVTAY) [compound 640], the Restriction entry was “CD8”. For 641 (TISLAGSYK) [compound 641], the Restriction result was “CD8”. As for 642 (ISLAGSYKDW) [compound 642], the Restriction entry was “CD8”. Take 643 (SVYYTSNPTTF) [compound 643]: the Restriction entry is on record as “CD8”. As to 644 (YYTSNPTTF) [compound 644], the Restriction result is “CD8”. As to 645 (YYTSNPTTFHL) [compound 645], the Restriction result is reported as “CD8”. In the case of 646 (TSNPTTFHL) [compound 646], the Restriction result is on record as “CD8”. As to 647 (HLDGEVITF) [compound 647], the Restriction result is recorded as “CD8”. For 648 (GEVITFDNL) [compound 648], the Restriction entry is on record as “CD8”. As for 649 (ITFDNLKTL) [compound 649], the Restriction entry is “CD8”.

As for 650 (NLKTLLSL) [compound 650], the Restriction entry is “CD8”. Consider 651 (RTIKVFTTV) [compound 651], for which the Restriction entry is reported as “CD8”. For the substance 652 (NINLHTQVV) [compound 652], the Restriction result is listed as “CD8”.

For 653 (HTQVVDMSMTY) [compound 653], the Restriction result was “CD8”. With 654 (QVVDMSMTY) [compound 654], the Restriction result is “CD8”. As for 655 (MSMTYGQQF) [compound 655], the Restriction entry is given as “CD8”. Regarding 656 (KPHNSHEGKTF) [compound 656], the Restriction result is “CD8”. As to 657 (LRVEAFEYY) [compound 657], the Restriction entry is recorded as “CD8”. 658 (FEYYHTTDPSF) [compound 658]: the Restriction entry was “CD8”. With 659 (HTTDPSFLGR) [compound 659], the Restriction result is listed as “CD8”. Turning to 660 (HTTDPSFLGRY) [compound 660], the Restriction result is “CD8”. Consider 661 (TTDPSFLGRY) [compound 661], for which the Restriction entry is “CD8”.
